Experimental data from PubChem BioAssay AID179 (DTP/NCI, 2004).
Activity calls are given as the source filed them.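 The calls were made as follows: active = compounds giving half or more protection of infected cells from virus-caused growth loss, again on retest; inactive = the rest.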 Where a SMILES comes first, the peptide text is derived from it. The star is where a group is joined. Cbz = O=C(OCc1ccccc1)*; Boc = CC(C)(C)OC(=O)*; OBn = c1ccc(CO*)cc1

System: CEM cells HIV-1 protection, formazan growth assay
Assay: NCI AIDS Antiviral Assay
Conditions: for IC50: measured here: growth of uninfected CEM cells
Procedure, shortened: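 Protection of CEM cells against HIV-1 was scored from cell growth (soluble formazan) across five concentrations, with parallel uninfected cells. Lack of protection may reflect toxicity.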

Row | Compound | outcome | EC50 | IC50
1 | O=S(=O)(O)c1ccc2c(N=Nc3cccc4ccccc34)c(O)c(S(=O)(=O)O)cc2c1 | inactive | – | –
2 | COCO[C@@H]1C[C@H]2C(=O)Nc3ccccc3C(=O)N2C1 | – | > 200 µM | 38 µM
3 | CCN(CC)C(=S)N/N=C/c1cc([N+](=O)[O-])ccc1O | – | > 200 µM | 3.63 µM
4 | COC(=O)C(=O)C(C(=O)C(=O)Nc1ccc([N+](=O)[O-])cc1)c1nc2ccccc2[nH]c1=O (configuration not stated) | – | > 575 µM | 72.4 µM
5 | CCSc1nnc2c(-c3ccccc3)n[nH]c2n1 | inactive | – | –
6 | O=C(O)CSC(=S)CCCCCCCCCCC(=S)SCC(=O)O | – | > 120 µM | > 120 µM
7 | CN1CCC/C1=N\c1scc(-c2ccc(Br)cc2)[n+]1-c1ccccc1 | – | > 38 µM | 5.75 µM
8 | CC1=C(O[Si](C(C)C)(C(C)C)C(C)C)C2CC1(OS(=O)(=O)C(F)(F)F)[C@H]1C(=O)N(c3ccccc3)C(=O)[C@@H]21 (some centres not stated) | – | > 4.79 µM | > 4.79 µM
9 | CCC12CCCN(Cc3ccccc3)C1c1c([nH]c3ccccc13)C(C(=O)OC)C2 (configuration not stated) | – | > 30.9 µM | > 30.9 µM
10 | CC(NC(=O)CNC(=O)C(N)CO)C(=O)NC(CCC(=O)O)C(=O)NC(CCCCN)C(=O)N1CCCC1C(=O)NC(CCC(=O)O)C(=O)NC(CCCCN)C(=O)NC(CCC(=O)O)C(=O)NC(CCCN=C(N)N)C(=O)NC(CO)C(=O)NC(Cc1ccc(O)cc1)C(=O)NC(C)C(=O)NC(Cc1cnc[nH]1)C(=O)NC(CO)C(=O)O (configuration not stated) (H-SGAEKPEKERSYAHS-OH; configuration not given here) | – | > 100 µM | > 100 µM
11 | COC1=CC(=O)c2ccccc2C1(CCC=C(C)C)C1=NC(C)(C)CO1 (configuration not stated) | inactive | – | –
12 | CC1(C)SC2C(NC(=O)C(C(=O)O)c3ccccc3)C(=O)N2C1C(=O)O (configuration not stated) | – | > 200 µM | > 200 µM
13 | C=C1C(=O)O[C@H]2C3OC3(C)CC/C=C(/C(=O)OC)[C@@H](OC(C)=O)[C@H](OC(=O)C3(C)OC3C)[C@H]12 (some centres not stated) | inactive | – | –
14 | CC(OC1C(N)C(O)OC(CO)C1O)C(=O)O (configuration not stated) | inactive | – | –
15 | CCOC(=O)C(C)(c1c(C)[nH]c2ccccc12)c1c(C)[nH]c2ccccc12 | inactive | – | –
16 | N#CCc1nc(-c2cc3c(ccc4ccccc43)oc2=O)cs1 | – | > 200 µM | 178 µM
17 | N#CCC(=O)N/N=C\c1ccc2c(c1)OCO2 | – | > 200 µM | > 200 µM
18 | Cn1c(N)c(N)c(=O)[nH]c1=O | – | > 200 µM | 162 µM
19 | O=C(CSc1nnc(-c2ccc(N=Cc3ccc(Cl)cc3)cc2)o1)Nc1ccc(Cl)cc1 | – | > 269 µM | 141 µM
20 | CS/C(=C(\S)c1ccccc1)c1ccccc1 | inactive | – | –
21 | CCn1c(O)c(C=Nc2ccccc2)s/c1=N/Nc1nc(C)c(C(C)=O)s1 | – | > 200 µM | > 200 µM

Row | Compound | outcome | EC50 | IC50
22 | CN(C)c1ccc(/C=N\NC(=O)c2ccccc2Nc2ccccc2C(=O)N/N=C/c2ccc(N(C)C)cc2)cc1 | – | 66.1 µM | > 200 µM
23 | Cc1ccc(S(=O)(=O)N2CCCN(S(=O)(=O)c3ccc(C)cc3)CC2)cc1 | – | > 45.7 µM | > 45.7 µM
24 | NC(=O)c1cccc(N=O)c1 | – | > 200 µM | 12.9 µM
25 | N#C/C(=C\c1ccc(O)c(O)c1)C(N)=O | – | > 25.1 µM | 10.5 µM
26 | O=[N+]([O-])c1cnc(/C=[N+](\[O-])CCO)n1CCO | inactive | – | –
27 | Cc1c([O-])c([O-])c(C)c2c1OCO2.[C-]#[O+].[C-]#[O+].[C-]#[O+].[Re].c1ccc([PH+](c2ccccc2)c2ccccc2)cc1 | – | > 15.1 µM | 6.46 µM
28 | CSc1nnc(N(C(C)C)C(C)C)c2nc[nH]c12 | – | > 200 µM | > 200 µM
29 | CC(=O)/C=C\C(=O)NNS(=O)(=O)c1ccc(C)cc1 | – | > 891 µM | 832 µM
30 | Cc1nc2cccc([N+](=O)[O-])c2c(NCCCN(C)C)c1C | – | > 200 µM | 40.7 µM
31 | COC(=O)c1nn(-c2ccccc2)c(=O)cc1N=[N+]=[N-] | – | > 200 µM | 112 µM
32 | O=C1CC2(C[C@@H]3CCCCCCCCC[C@@H](C3)C2)N1 (some centres not stated) | – | > 200 µM | 40.7 µM
33 | COc1ccc(NC(C)=O)cc1N1C(=O)/C(=C\c2cc(OC)c(OC)c(OC)c2)SC1c1ccccc1 (configuration not stated) | inactive | – | –
34 | O=C(O)c1ccc2c(c1)C(=O)N(c1ccc(Oc3ccc(N4C(=O)c5ccc(C(=O)O)cc5C4=O)cc3)cc1)C2=O | inactive | – | –
35 | O=C1/C(=C/c2cccc3ccccc23)CCc2ccc([N+](=O)[O-])cc21 | – | > 200 µM | 47.9 µM
36 | O=C1/C(=C/c2cccc(F)c2)Cc2ccccc21 | – | > 30.2 µM | > 30.2 µM
37 | N#CN=C(N)N | inactive | – | –
38 | CCOC(=O)/C(=C(\C)N)C1CC(=O)NC1=O (configuration not stated) | – | > 200 µM | 107 µM
39 | Cn1c(=O)[nH]n(C2Cn3c(=O)n(C)c(=O)n3-c3ccccc32)c1=O (configuration not stated) | – | > 200 µM | > 200 µM
40 | CNC(=O)CNC(=O)C(NC(=O)CNC(=O)C1CCCN1C(=O)C(C)NC(=O)C(NC(=O)OC(C)(C)C)C(C)C)C(C)C (configuration not stated) (Boc-VAPGVG-NHMe; configuration not given here) | – | > 200 µM | > 200 µM
41 | O=C1OC(=O)c2c1cc1cc3c(cc1c2-c1ccc2c(c1)OCO2)OCO3 | inactive | – | –
42 | CCOP(=O)(OCC)c1ccc[nH]1 | – | > 200 µM | > 200 µM

Row | Compound | outcome | EC50 | IC50
43 | Cc1c(-c2coc(-c3ccc(Cl)cc3)n2)c(=O)n(-c2ccccc2)n1C | – | > 51.3 µM | > 51.3 µM
44 | Cc1ccc(NC(=S)/N=C/c2c(O)[nH]c(=O)[nH]c2=O)c(C)c1 | – | > 200 µM | 151 µM
45 | CCOC(=O)/C=C/[C@H](O)[C@@H](O)/C=C/C(=O)OCC | – | > 200 µM | 17 µM
46 | C=C[C@@]1(C)CC2(C=C(CO)C(O)O2)Oc2c1c(=O)oc1cccc(C)c21 (some centres not stated) | – | > 200 µM | 3.02 µM
47 | CNc1nc(OC)c2c(n1)[n+](C)cn2C | – | > 200 µM | 61.7 µM
48 | CC(C)(C)OC(=O)NCCCCC(N)C(N)=O (configuration not stated) | – | > 200 µM | > 200 µM
49 | FC(F)(F)C(F)(F)/C(=N/Nc1ccccc1)SS/C(=N\Nc1ccccc1)C(F)(F)C(F)(F)F | – | > 200 µM | 3.16 µM
50 | CC1=NN2C(=O)CSC2=NC(C)(C)C1 | – | 263 µM | 1170 µM
51 | BrCc1ccccc1C[P+](c1ccccc1)(c1ccccc1)c1ccccc1 | – | > 200 µM | 2.45 µM
52 | CCC(=O)N1C(=O)C(C)C23c4cccc([N+](=O)[O-])c4C(=O)N2CCCN13 (configuration not stated) | – | > 692 µM | > 692 µM
53 | Oc1ccc(C2(c3ccc(O)cc3)CCCC2)cc1 | – | > 200 µM | 30.9 µM
54 | CCOC(=O)CCC(NC(=O)C(CCC(=O)OCC)NC(=O)C(Cc1ccc([N+](=O)[O-])cc1)NC(C)=O)C(=O)NNC(=O)OC(C)(C)C (configuration not stated) | – | > 200 µM | > 200 µM
55 | COC(=O)/C(C#N)=C/Sc1ccccc1 | inactive | – | –
56 | C/C(C=O)=N\Nc1cc(C)c2ccccc2n1 | – | > 200 µM | 9.55 µM
57 | CN1Nc2ccccc2CC1=O | – | > 1550 µM | 55 µM
58 | CC1=CC(C)(C)[C@H]2O[C@@]3(O)C[C@]4(C)[C@H]5C[C@@](C(C)C)(O[C@H]4c4ccoc4)O[C@H]4[C@]5(C3)O[C@@]1(O)[C@]24O | – | > 100 µM | > 100 µM
59 | O=C(O)c1cccc(S(=O)(=O)c2ccc([N+](=O)[O-])cc2)c1 | – | > 200 µM | > 200 µM
60 | CC1(C)OC(=O)C(CC(=O)O)O1 (configuration not stated) | inactive | – | –
61 | CC1(C)CC(/C=C2/OC(=O)c3ccccc32)=C(C#N)C(=O)O1 | – | > 33.9 µM | > 33.9 µM
62 | CCOC(=O)c1ccc(-c2cc(C)no2)[nH]1 | – | > 200 µM | 36.3 µM
63 | CCCCN1C(CO)C(O)C(O)C(O)C1CO (configuration not stated) | – | > 200 µM | > 200 µM

Row | Compound | outcome | EC50 | IC50
64 | O=C1CC(c2ccccc2)NC(=O)N1CCN1CCOCC1 (configuration not stated) | – | > 200 µM | > 200 µM
65 | CO/N=C1/c2sccc2[C@H](NC(=O)C(F)(F)F)[C@@H]1O | – | > 200 µM | > 200 µM
66 | CN(CCc1ccccn1)C(=S)N/N=C/c1ccccn1 | – | > 0.2 µM | 0.0251 µM
67 | CNC(=O)N1CN(c2ccccc2)C2(CCN(CCCC(=O)c3ccc(F)cc3)CC2)C1=O | – | > 200 µM | 10.5 µM
68 | O/N=c1/sc2ccccc2nc1-c1ccccc1 | – | > 200 µM | > 200 µM
69 | COc1cc2cc3c(c(-c4ccc5c(c4)OCO5)c2c(OC)c1OC)COC3=O | – | > 34.7 µM | 17.8 µM
70 | CC(C)N(C(C)C)[PH+]1O[PH+](N(C(C)C)C(C)C)O[PH+](N(C(C)C)C(C)C)O[PH+](N(C(C)C)C(C)C)O[PH+](N(C(C)C)C(C)C)O1.[C-]#[O+].[C-]#[O+].[C-]#[O+].[C-]#[O+].[C-]#[O+].[C-]#[O+].[C-]#[O+].[Cr].[Cr] (configuration not stated) | – | > 25.1 µM | > 25.1 µM
71 | CC(=O)Nc1ccccc1/C=C\c1ccccn1 | – | > 1050 µM | > 1050 µM
72 | O=C(Cn1c2c(c3ccccc31)CCCC2)N1CCCC1 | – | > 200 µM | > 200 µM
73 | O=c1oc2c3ccc4ccccc4c3n(Cc3nc4ccccc4[nH]3)c2c2ccccc12 | – | > 8.32 µM | 4.68 µM
74 | Cn1c(CC(O)(C(F)(F)F)C(F)(F)F)c(C(O)(C(F)(F)F)C(F)(F)F)c2ccccc21 | – | > 200 µM | 3.39 µM
75 | O=C(O)C#CC(=O)O | – | > 1580 µM | > 1580 µM
76 | CCOC(=O)c1cnc2cc3cccccc3n2c1=O | inactive | – | –
77 | CC12CC(=O)CC1(C)CC(=O)C2 (configuration not stated) | – | > 537 µM | > 537 µM
78 | COC(=O)C(Cc1ccc(O)cc1)NC(=O)C(CC(=O)OCc1ccccc1)NC(=O)OCc1ccccc1 (configuration not stated) (Cbz-Asp(OBn)-Tyr-OMe; configuration not given here) | – | > 200 µM | 30.9 µM
79 | Cc1cc(C(C)(C)C)cc(Cc2cc(C(C)(C)C)cc(Cc3cc(C(C)(C)C)cc(C)c3O)c2O)c1O | – | > 20 µM | > 20 µM
80 | Cc1ccccc1N=C1SCC(=O)N1c1ccccc1C | – | 141 µM | 191 µM
81 | O=C1C=C(Nc2ccc(Cl)cc2Cl)C(=O)C=C1Nc1ccc(Cl)cc1Cl | – | > 200 µM | > 200 µM
82 | CCCCNc1nc(C(F)(F)F)nc2nc[nH]c12 | – | > 200 µM | > 200 µM
83 | N#C/C(=C\N1CC(=O)NC1=S)c1nc2ccccc2s1 | inactive | – | –
84 | O=C1Oc2cc3c(c4cccc1c24)OCN(c1ccccc1)C3 | – | > 33.1 µM | 24.5 µM
